Values of other authors, collected in patent publication US20030162725A1, “Synergistic pharmaceutical combinations for treating obesity with EGCG” (priority 2002, published 2003).

Test system: mouse

N[C@@H](Cc1c[nH]c2ccc(O)cc12)C(=O)O [5-HTP, 5-hydroxytryptophan]
LD50 i.p. (i.p., species not restated (studies in the rat and mouse)): 1400 mg/kg
LD50 per os (per os in the mouse): 2500 mg/kg
